Laboratory results reported in ChEMBL document CHEMBL1201862, “PubChem BioAssay data set” (2004).
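Cells were grown in 96-well plates and exposed to each compound for 48 hours at five concentrations; endpoints were interpolated linearly between bracketing concentrations, or set to the highest concentration if not reached. GI50 marks 50% less growth.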 Active and inactive are the calls of the source. Cut-off read from the data, not from the text of the source: active = GI50 up to about 1.1 µM and inactive = higher.

Key:
Assay in all cases: DTP human tumour cell line panel, 48 h
[1] = tested on: A498
[2] = tested on: RPMI-8226
[3] = tested on: SK-MEL-5
[4] = tested on: K562
[5] = tested on: COLO 205
[6] = tested on: SK-MEL-2
[7] = tested on: NCI-H460
[8] = tested on: KM12
[9] = tested on: SW-620
[10] = tested on: TK-10
[11] = tested on: SF-268
[12] = tested on: SK-MEL-28
[13] = tested on: EKVX
[14] = tested on: UACC-257
[15] = tested on: HT-29
[16] = tested on: A549
[17] = tested on: SK-OV-3
[18] = tested on: OVCAR-3
[19] = tested on: Malme-3M
[20] = tested on: CAKI-1

Structure (SMILES) | GI50 [1] | GI50 [2] | GI50 [3] | GI50 [4] | GI50 [5] | GI50 [6] | GI50 [7] | GI50 [8] | GI50 [9] | GI50 [10] | GI50 [11] | GI50 [12] | GI50 [13] | GI50 [14] | GI50 [15] | GI50 [16] | GI50 [17] | GI50 [18] | GI50 [19] | GI50 [20]
O=C(O)c1cc(-c2ccc3cc4c(cc3c2)OCO4)nc2ccccc12 | 23.9 µM (inactive) | 45.9 µM (inactive) | 24 µM (inactive) | 32.5 µM (inactive) | 42.4 µM (inactive) | 62.7 µM (inactive) | 12.9 µM (inactive) | > 100 µM (inactive) | 45.2 µM (inactive) | 18.2 µM (inactive) | 28.6 µM (inactive) | 47.5 µM (inactive) | 14.4 µM (inactive) | 5.41 µM (inactive) | 25.9 µM (inactive) | 21.1 µM (inactive) | 44.7 µM (inactive) | 41.6 µM (inactive) | 65.2 µM (inactive) | 
CCC1(OC(=O)CN)C(=O)OCc2c1cc1n(c2=O)Cc2cc3ccccc3nc2-1 (centres undefined) | 0.0512 µM (active) | < 0.0132 µM (active) |  | 0.0334 µM (active) | 0.0491 µM (active) | 0.0794 µM (active) | 0.01 µM (active) | 0.128 µM (active) | 0.067 µM (active) | 0.516 µM (active) | 0.01 µM (active) | 0.101 µM (active) | 0.598 µM (active) | 0.0353 µM (active) |  | 0.011 µM (active) | 0.0297 µM (active) | 0.0944 µM (active) | 0.151 µM (active) | 0.01 µM (active)
CCN1CCC(O)(/C=C/c2ccc(C)cc2)C(C(=O)/C=C/c2ccc(C)cc2)C1 (centres undefined) | 10.3 µM (inactive) | 2.77 µM (inactive) | 3.43 µM (inactive) | 2.36 µM (inactive) | 1.75 µM (inactive) | 3.75 µM (inactive) | 4.45 µM (inactive) | 2.19 µM (inactive) | 1.75 µM (inactive) | 5.45 µM (inactive) | 9.57 µM (inactive) | 5.86 µM (inactive) | 13.2 µM (inactive) | 12.5 µM (inactive) | 2.61 µM (inactive) | 8.24 µM (inactive) | 15.6 µM (inactive) | 6.32 µM (inactive) | 6.75 µM (inactive) | 2.78 µM (inactive)
COc1ccc(C2N(NC(=O)c3ccncc3)C(=O)CS2(=O)=O)cc1F (centres undefined) | > 100 µM (inactive) | > 100 µM (inactive) | > 100 µM (inactive) |  | > 100 µM (inactive) | > 100 µM (inactive) | > 100 µM (inactive) | > 100 µM (inactive) | > 100 µM (inactive) | > 100 µM (inactive) | > 100 µM (inactive) | > 100 µM (inactive) |  | > 100 µM (inactive) | > 100 µM (inactive) | > 100 µM (inactive) | > 100 µM (inactive) |  | > 100 µM (inactive) | > 100 µM (inactive)
Cc1ccc(NC(=S)NNC(=O)c2cc(-c3ccccc3)nc3ccccc23)cc1C | 16.6 µM (inactive) | 24.3 µM (inactive) | 18 µM (inactive) | 33 µM (inactive) | 16.6 µM (inactive) | 18.6 µM (inactive) | 19.5 µM (inactive) | 27.4 µM (inactive) | 31.5 µM (inactive) | 23.7 µM (inactive) | 29.4 µM (inactive) | 25.8 µM (inactive) |  | 26.4 µM (inactive) | 23.7 µM (inactive) | 20.5 µM (inactive) | 16.6 µM (inactive) |  | 20 µM (inactive) | 59.7 µM (inactive)
O=C(NC1C/C(=N/O)c2c(Br)sc(Br)c21)C(F)(F)F (centres undefined) | 24.5 µM (inactive) |  | 19.6 µM (inactive) | 20 µM (inactive) | 51.8 µM (inactive) | 11.4 µM (inactive) | 25.4 µM (inactive) | 45 µM (inactive) | 30.2 µM (inactive) | 36.3 µM (inactive) | 23.6 µM (inactive) |  | 27 µM (inactive) | 22.9 µM (inactive) | 26.9 µM (inactive) | 20 µM (inactive) | 47.6 µM (inactive) | 35.8 µM (inactive) | 45.9 µM (inactive) | 13.8 µM (inactive)
C=CCNC(=O)N(CCC)CCCCC(NC(C)=O)C(=O)NCc1ccccc1 (centres undefined) | > 100 µM (inactive) | > 100 µM (inactive) | > 100 µM (inactive) | > 100 µM (inactive) | > 100 µM (inactive) | > 100 µM (inactive) | > 100 µM (inactive) | > 100 µM (inactive) | > 100 µM (inactive) | > 100 µM (inactive) | > 100 µM (inactive) | > 100 µM (inactive) | > 100 µM (inactive) | > 100 µM (inactive) | > 100 µM (inactive) | > 100 µM (inactive) | > 100 µM (inactive) | > 100 µM (inactive) | > 100 µM (inactive) | > 100 µM (inactive)
CC(C)(C)C(=O)OCC1C(=O)OCC1C(=O)N1Cc2cc3ccccc3nc2C1 (centres undefined) | 13.2 µM (inactive) | 1.31 µM (inactive) | 15.2 µM (inactive) | 0.728 µM (active) | 0.957 µM (active) | 8.59 µM (inactive) | 3.93 µM (inactive) | 15.8 µM (inactive) | 1.57 µM (inactive) | 2.15 µM (inactive) | 8.91 µM (inactive) | 3.21 µM (inactive) | 7.41 µM (inactive) | 4.42 µM (inactive) | 3.5 µM (inactive) | 15.2 µM (inactive) | 16.1 µM (inactive) | 4.07 µM (inactive) | 1.46 µM (inactive) | 1.28 µM (inactive)
COC1OC(CS(=O)(=O)O)C(O)C(O)C1O (centres undefined) | > 100 µM (inactive) | > 100 µM (inactive) | > 100 µM (inactive) | > 100 µM (inactive) | > 100 µM (inactive) | > 100 µM (inactive) | > 100 µM (inactive) | > 100 µM (inactive) | > 100 µM (inactive) | > 100 µM (inactive) |  | > 100 µM (inactive) |  | > 100 µM (inactive) | > 100 µM (inactive) |  | > 100 µM (inactive) | > 100 µM (inactive) | > 100 µM (inactive) | > 100 µM (inactive)
CC(C)OP(=O)(OC(C)C)c1nn(-c2ccc([N+](=O)[O-])cc2)c(=N)s1 | > 100 µM (inactive) | > 100 µM (inactive) | 69.5 µM (inactive) | 61.8 µM (inactive) | > 100 µM (inactive) |  | > 100 µM (inactive) | > 100 µM (inactive) | > 100 µM (inactive) | > 100 µM (inactive) | > 100 µM (inactive) | > 100 µM (inactive) | > 100 µM (inactive) | 38.1 µM (inactive) | > 100 µM (inactive) | > 100 µM (inactive) | > 100 µM (inactive) | 77.8 µM (inactive) | > 100 µM (inactive) | > 100 µM (inactive)
CC(=O)[C@H]1CCC2[C@@H]3CC=C4C(O)C(OS(=O)(=O)O)CC[C@]4(C)C3CC[C@@]21C (some centres undefined) | > 100 µM (inactive) | > 100 µM (inactive) | > 100 µM (inactive) | > 100 µM (inactive) | > 100 µM (inactive) | > 100 µM (inactive) | > 100 µM (inactive) | > 100 µM (inactive) | > 100 µM (inactive) |  | > 100 µM (inactive) | > 100 µM (inactive) | > 100 µM (inactive) |  | > 100 µM (inactive) | > 100 µM (inactive) | > 100 µM (inactive) | > 100 µM (inactive) | > 100 µM (inactive) | > 100 µM (inactive)
Cc1[nH]c2ncn(/N=C/c3ccccc3O)c(=N)c2c1Cc1ccccc1 | 36.5 µM (inactive) | 37.8 µM (inactive) |  | 11.3 µM (inactive) | > 100 µM (inactive) | 23.3 µM (inactive) | 66.7 µM (inactive) | 30.2 µM (inactive) | 32.2 µM (inactive) | 56.9 µM (inactive) | 75.2 µM (inactive) | 42.3 µM (inactive) | 25 µM (inactive) | 34.4 µM (inactive) | 47.6 µM (inactive) | 39.4 µM (inactive) | > 100 µM (inactive) | 24.2 µM (inactive) |  | 46.1 µM (inactive)
CC1[C@@H]2CC=C3C4CCC5Cc6nc7c(nc6C[C@@]5(C)C4CC(=O)[C@]32CO[C@@]1(O)C(O)CC(C)(C)O)CC1CCC2C3=C[C@H]4O[C@@]5(O[C@@](C)(CO)C[C@@H]5O)C(C)[C@@]4(O)[C@]3(C)[C@@H](O)CC2[C@]1(C)C7 (some centres undefined) | 0.00108 µM (active) | < 0.00036 µM (active) | 0.0102 µM (active) | 0.0112 µM (active) | 0.015 µM (active) | 0.00775 µM (active) | 0.00151 µM (active) | 0.0181 µM (active) | 0.00933 µM (active) |  | 0.00676 µM (active) |  | 0.000386 µM (active) | 0.0491 µM (active) | 0.00459 µM (active) | 0.0031 µM (active) | 0.00184 µM (active) | 0.491 µM (active) | 0.0166 µM (active) | 0.0132 µM (active)
NC(Cc1c[nH]c2ccccc12)C(=O)O (stereo not drawn) [DL-TRYPTOPHAN] | > 13.9 µM (inactive) | > 300 µM (inactive) | > 300 µM (inactive) | 204 µM (inactive) | > 300 µM (inactive) | > 300 µM (inactive) | > 300 µM (inactive) | > 300 µM (inactive) | > 300 µM (inactive) |  | > 300 µM (inactive) | > 300 µM (inactive) | > 300 µM (inactive) | > 300 µM (inactive) | > 300 µM (inactive) | > 300 µM (inactive) | > 300 µM (inactive) | > 300 µM (inactive) | > 300 µM (inactive) | > 300 µM (inactive)
